Results reported in patent US20220296590A1, “STEREOISOMERS OF THE COMPOUND 3-(BENZO[D][1,3]DIOXOL-5-YL)-7-(1-HYDROXYPROPAN-2-YL)-1-(1H-INDOL-3-YL)-6,7-DIHYDRO-3H-OXAZOL[3,4-A]PYRAZINE-5,8-DIONE AND USE THEREOF AS AN ANTITUMOR AGENT AND PHOSPHODIESTERASE ENZYME INHIBITOR” (BIOLAB SANUS FARMACEUTICA LTDA, priority 2019, published 2022).

Columns and labels:
[1] = tested on: DU145-human prostate cancer; assay: Antiproliferative effect in tumor cell culture (CYQuant intracellular DNA, 72 hours), DU145; type: cell-based; conditions: for % Cell Proliferation Inhibition (intracellular DNA) DU145 (average ± E.P.M.): 72 hours
Method: (§1) For the execution of the assay, the compounds are diluted in DMSO 100% (v/v) at a concentration of 1000 μM and subsequently diluted in a Sodium Chloride solution 0.9% to obtain the storage solutions of interest for use in the assays. The final concentration of interest will be directly diluted in the cell culture medium. For the assay there are used the following tumor cell lineages: PC3-human prostate cancer cells; LNCAP-human prostate cancer cells; DU145-human prostate cancer; MNK45-human gastric cancer and RT4-human bladder cancer cells. The tumor cell lineages are maintained in culture according to standard procedures established by the Cell Bank of Rio de Janeiro (lineage place of origin). For the assay, the tumor cells are seeded in the concentration of 10.000 cells per well (final volume of the reaction of […]), the plate is incubated for 8 hours, for the cells to adhere to the wall of the wells. After this period, the plate is divided in groups: • (a) test group: […] of the samples were added (test compound) in the concentrations of interest; • (b) positive control group: […] of culture medium were added (100% of cell proliferation); • (c) negative control group: 200 mL of culture medium and […] of the vehicle used were added to dilute the compounds (without cells—zero proliferation); • (d) control group: […] were added of the vehicle used to dilute the compounds. This group is important to evaluate whether the vehicle used interferes in the cell proliferation. OBSERVATION: the treatment with the concentrations of samples (test compounds) and of the controls are carried out in triplicate. Incubate the plate for 72 hours in a CO2 kiln at 37° C. After the incubation period, add […]/well of the solution with DNA marker from the CYQuant Kit and incubate the plate, for 60 minutes, in a CO2 incubator at 37° C. The fluorescence intensity is determined using a fluorescence microplate reader with 485 nm excitation and 530 nm emission detection. The results obtained were normalized relative to the positive control group (100% proliferation). For the compounds there are prepared the storage solutions in the concentrations of: 100 nM, 1 μM, 3 μM, 5 μM, 10 μM and 30 μM (DMSO 10% v/v). While the final concentrations in the test are of: 10 nM, 100 nM, 300 nM, 500 nM, 1000 nM and 3000 nM (in DMSO 1% v/v).

[2] = tested on: MNK45-human gastric cancer; assay: Antiproliferative effect in tumor cell culture (CYQuant intracellular DNA, 72 hours), MNK45; type: cell-based
Method: as §1

[3] = tested on: LNCAP-human prostate cancer cells; assay: Antiproliferative effect in tumor cell culture (CYQuant intracellular DNA, 72 hours), LNCAP; type: cell-based; conditions: for % Cell Proliferation Inhibition (intracellular DNA) LNCAP (average ± E.P.M.): 72 hours
Method: as §1

[4] = tested on: PC3-human prostate cancer cells; assay: Antiproliferative effect in tumor cell culture (CYQuant intracellular DNA, 72 hours), PC3; type: cell-based; conditions: for % Cell Proliferation Inhibition (intracellular DNA) PC-3 (average ± E.P.M.): 72 hours
Method: as §1

[5] = tested on: RT4-human bladder cancer cells; assay: Antiproliferative effect in tumor cell culture (CYQuant intracellular DNA, 72 hours), RT4; type: cell-based; conditions: for % Cell Proliferation Inhibition (intracellular DNA) RT4 (average ± E.P.M.): 72 hours
Method: as §1

[6] = molecular target: T1, PDE5A1 enzyme (Homo sapiens, UniProt O76074); assay: In vitro inhibition of human phosphodiesterase enzyme 5 (BPS Bioscience PDE5A1 assay kit, fluorescence polarization); type: biochemical
T1 construct: purchased BPS Bioscience 60350
Method: The evaluation of the compound is studied using BPS Bioscience enzyme assay kit (catalogue 60350). The PDE5A1 Assay kit is designed for identification of PDE5A1 inhibitors using fluorescence polarization. The assay is based on the binding of a fluorescent nucleotide monophosphate generated by PDE5A1 enzyme to the binding agent.
In this methodology only two simple steps on a microtiter plate are required for PDE5A1 reactions. First, the fluorescently labeled cGMP is incubated with PDE5A1 for 1 hour. Second, the binding agent is added to the reaction mixture to produce a change in fluorescent polarization that can then be measured using a fluorescence reader equipped for the measurement of fluorescence polarization.
For the assay the storage reagent FAM-Cyclic-3′, 5′-GMP (20 μM) is diluted with PDE assay buffer to achieve the solution with a […] concentration; the PDE5A1 enzyme is thawed and diluted with the PDE buffer obtaining a PDE5A1 solution at 10 pg/mL.
The assay compounds are diluted with DMSO 100% (v/v) at a concentration of 1000 μM and subsequently diluted in a Sodium chloride 0.9% solution to obtain a curve of concentrations of interest for the assay. The compounds are diluted in concentrations of: 10 nM, 30 nM, 50 nM, 100 nM, 300 nM, 500 nM, 1 μM, 3 μM, 5 μM (DMSO 10% v/v).
The study is comprised of groups: (i) substrate control; (ii) positive control (KIT); (iii) samples in several concentrations; (iv) tadalafil (comparative control). Each parameter (group) is triple labeled.
For the 4 groups there is added, to each microplate well, […] of the FAM-Cyclic-3′ reagent, 5′-GMP (200 μM).
To the substrate control group there is added, to each well, […] of vehicle (DMSO 10% v/v) and […] PDE Buffer.
To the positive control group there is added, to each well, […] of vehicle (DMSO 10% v/v).
To the tadalafil group: there is added […] of the solution in the concentrations of interest.
To the test group there is added […] of the sample solution (test compound)
OBSERVATION: the parameters tested are in triplicate.
To begin the reaction, add […] of the PDE5A1 enzyme (diluted as described above) to the microplate wells designated as Positive Control and Samples (test and tadalafil), and incubate the microplate, for 1 hour, at a temperature of 25° C.
After the incubation period, the reaction is interrupted by the addition, in all the wells, of […] of the binding agent solution and the microplate is incubated for 30 minutes, under light stirring, at room temperature. The reading of the microplate is carried out in Polarized Fluorescence (475-495 nm—excitation and 518-538 nm—emission detection) 500 nanoseconds integration time.

With `CC(CO)N1CC(=O)N2C(=C(c3c[nH]c4ccccc34)OC2c2ccc3c(c2)OCO3)C1=O` (mixture of isomers) [BL-380, (R)-3-(benzo[d][1,3]dioxol-5-yl) -7-((R)-1-hydroxypropan-2-yl)-1-(1H-indole-3-yl)-6,7-dihydro-3H-oxazole[3,4-a]pyrazine-5,8-dione with (S)-3-(benzo[d][1,3]dioxol-5-yl)-7-((R)-1-hydroxypropan-2-yl)-1-(1H-indole-3-yl)-6,7-dihydro-3H-oxazole[3,4-a]pyrazine-5,8-dione] the “% Cell Proliferation Inhibition (intracellular DNA) DU145 (average ± E.P.M.)” value ([1]; 100 nM, 0.1 µM) was 12 ± 4%, the “% Cell Proliferation Inhibition (intracellular DNA) DU145 (average ± E.P.M.)” value ([1]; 300 nM, 0.3 µM) was 10 ± 5% and the “% Cell Proliferation Inhibition (intracellular DNA) DU145 (average ± E.P.M.)” value ([1]; 500 nM, 0.5 µM) was 12 ± 2%. For the same molecule, the “% Cell Proliferation Inhibition (intracellular DNA) DU145 (average ± E.P.M.)” value ([1]; 1000 nM, 1 µM) was 10 ± 3%, the “% Cell Proliferation Inhibition (intracellular DNA) DU145 (average ± E.P.M.)” value ([1]; 3000 nM, 3 µM) was 31 ± 5% and the “antiproliferative effect, result in words” value ([1]; DU145 prostate cancer tumor lineage) was “antiproliferative effect”. For the same molecule, the “% Cell Proliferation Inhibition (intracellular DNA) MNK45 (average ± E.P.M.)” value ([2]; 100 nM, 0.1 µM) was 7 ± 2%, the “% Cell Proliferation Inhibition (intracellular DNA) MNK45 (average ± E.P.M.)” value ([2]; 300 nM, 0.3 µM) was 0% and the “% Cell Proliferation Inhibition (intracellular DNA) MNK45 (average ± E.P.M.)” value ([2]; 500 nM, 0.5 µM) was 0%. For the same molecule, the “% Cell Proliferation Inhibition (intracellular DNA) MNK45 (average ± E.P.M.)” value ([2]; 1000 nM, 1 µM) was 0%, the “% Cell Proliferation Inhibition (intracellular DNA) MNK45 (average ± E.P.M.)” value ([2]; 3000 nM, 3 µM) was 16 ± 5% and the “% Cell Proliferation Inhibition (intracellular DNA) LNCAP (average ± E.P.M.)” value ([3]; 10 nM, 0.01 µM) was 26 ± 10%. For the same molecule, the “% Cell Proliferation Inhibition (intracellular DNA) LNCAP (average ± E.P.M.)” value ([3]; 100 nM, 0.1 µM) was 12 ± 3%, the “% Cell Proliferation Inhibition (intracellular DNA) LNCAP (average ± E.P.M.)” value ([3]; 300 nM, 0.3 µM) was 29 ± 6% and the “% Cell Proliferation Inhibition (intracellular DNA) LNCAP (average ± E.P.M.)” value ([3]; 500 nM, 0.5 µM) was 27 ± 2%. For the same molecule, the “% Cell Proliferation Inhibition (intracellular DNA) LNCAP (average ± E.P.M.)” value ([3]; 1000 nM, 1 µM) was 37 ± 2%, the “% Cell Proliferation Inhibition (intracellular DNA) LNCAP (average ± E.P.M.)” value ([3]; 3000 nM) was 48 ± 6% and the “antiproliferative effect, result in words” value ([3]; LNCAP prostate cancer tumor lineage) was “antiproliferative effect”. For the same molecule, the “% Cell Proliferation Inhibition (intracellular DNA) PC-3 (average ± E.P.M.)” value ([4]; 10 nM, 0.01 µM) was 39 ± 6%, the “% Cell Proliferation Inhibition (intracellular DNA) PC-3 (average ± E.P.M.)” value ([4]; 100 nM, 0.1 µM) was 25 ± 5% and the “% Cell Proliferation Inhibition (intracellular DNA) PC-3 (average ± E.P.M.)” value ([4]; 300 nM, 0.3 µM) was 28 ± 2%. The “% Cell Proliferation Inhibition (intracellular DNA) PC-3 (average ± E.P.M.)” value ([4]; 500 nM, 0.5 µM) was 48 ± 6%, the “% Cell Proliferation Inhibition (intracellular DNA) PC-3 (average ± E.P.M.)” value ([4]; 1000 nM, 1 µM) was 40 ± 3% and the “% Cell Proliferation Inhibition (intracellular DNA) PC-3 (average ± E.P.M.)” value ([4]; 3000 nM) was 54 ± 4%. For the same molecule, the “antiproliferative effect, result in words” value ([4]; PC3 prostate cancer tumor lineage) was “antiproliferative effect”, the “% Cell Proliferation Inhibition (intracellular DNA) RT4 (average ± E.P.M.)” value ([5]; 100 nM, 0.1 µM) was 8 ± 6% and the “% Cell Proliferation Inhibition (intracellular DNA) RT4 (average ± E.P.M.)” value ([5]; 300 nM, 0.3 µM) was 5 ± 5%. The “% Cell Proliferation Inhibition (intracellular DNA) RT4 (average ± E.P.M.)” value ([5]; 500 nM, 0.5 µM) was 3 ± 5%, the “% Cell Proliferation Inhibition (intracellular DNA) RT4 (average ± E.P.M.)” value ([5]; 1000 nM, 1 µM) was 3 ± 1% and the “% Cell Proliferation Inhibition (intracellular DNA) RT4 (average ± E.P.M.)” value ([5]; 3000 nM, 3 µM) was 58 ± 4%. The “antiproliferative effect, result in words” value ([5]; RT4 bladder cancer tumor lineage) was “antiproliferative effect”, the “% of Inhibition (PDE5A1)” value ([6]; 10 nM) was 0% and the “concentration as from which PDE5 inhibition was observed” value ([6]; 10 nM to 5000 nM tested) was no less than 300 nM. For the same molecule, the “% of Inhibition (PDE5A1)” value ([6]; 30 nM) was 0%, the “% of Inhibition (PDE5A1)” value ([6]; 50 nM) was 0% and the “% of Inhibition (PDE5A1)” value ([6]; 100 nM) was 0%. The “% of Inhibition (PDE5A1)” value ([6]; 300 nM) was 15 ± 3%, the “% of Inhibition (PDE5A1)” value ([6]; 500 nM, 0.5 µM) was 25 ± 3% and the “% of Inhibition (PDE5A1)” value ([6]; 1000 nM, 1 µM) was 55 ± 4%. The “% of Inhibition (PDE5A1)” value ([6]; 3000 nM, 3 µM) was 65 ± 2%, the “% of Inhibition (PDE5A1)” value ([6]; 5000 nM) was 78 ± 1% and the “PDE5 inhibition, result in words” value ([6]; over the concentrations tested) was “capable of inhibiting the PDE5 in a dose-dependent manner”.
For `CN1CC(=O)N2[C@H](c3ccc4c(c3)OCO4)c3[nH]c4ccccc4c3C[C@@H]2C1=O` [Tadalafyl, tadalafil, reference compound], the inhibition at 5 µM ([6]; read-out: % of Inhibition (PDE5A1)) was 96 ± 2%.
